In patent publication US7989642B2, “Process for producing powdered compositions containing highly unsaturated fatty acid esters of ascorbic acid and powdered compositions containing the esters” (Suntory Holdings Limited, priority 2003, dated 2011):

Assay: Test for the stability against oxidation of arachidonic acid moiety (storage at 37° C., humidity 12%, gas chromatography of non-oxidized arachidonic acid)
Format: physicochemical
Conditions: stored at 37° C.
Experimental: The resulting microcapsulated powder of 6-O-arachidonoyl-ascorbate was left in the air at 37° C. and a humidity of 12% for 30 days to determine the stability of the powder against oxidation (See, Example 4 below). During the 30-day period, samples were taken at predetermined intervals and were hydrolyzed into methyl arachidonate, which in turn was subjected to gas chromatography to determine the amount of non-oxidized arachidonic acid. As shown, the stability of any polysaccharides used was improved by powdering. The increase in the stability against oxidation was particularly significant in gum Arabic and soybean polysaccharide.
240 mg of each powder product (microcapsule) obtained in each example was placed in a flat bottom glass container (1.5 cm inner diameter, 3 cm high). Using an aqueous solution of lithium chloride, the humidity inside the container was maintained at 12% and the powder was stored at 37° C. The cup was taken out at predetermined intervals and the 6-O-arachidonoyl-ascorbate encapsulated in the microcapsules was hydrolyzed, followed by esterification with methyl groups. The amount of non-oxidized arachidonic acid was determined by gas chromatography (GC-14B, manufactured by SHIMADZU CORP.). The samples were analyzed using methyl myristate as an internal standard. […]

Compound: 6-O-arachidonoyl-ascorbate
- proportion of the arachidonic acid left unoxidized (after 30 days, relative to Day 0): 30%

Compound: CCCCC/C=C\C/C=C\C/C=C\C/C=C\CCCC(=O)O [non-capsulated arachidonic acid, arachidonic acid]
- disappearance of non-oxidized arachidonic acid: disappeared in a few hours
